# Experimental data: article PMC9471462, “The nematode serotonin-gated chloride channel MOD-1: A novel target for anthelmintic therapy” (The Journal of Biological Chemistry, 2022)
# Legend:
# MOD-1 [1] = target: T1, MOD-1 (Caenorhabditis elegans, UniProt Q9GQ00); test: whole-cell patch clamp in BOSC-23 cells, preincubation; weak partial reduction of 5-HT peak current at […]; assay type: cell-based
# MOD-1 [2] = target: T1, MOD-1; test: cell-based
# MOD-1 [3] = target: T1, MOD-1; test: whole-cell patch clamp of homomeric MOD-1 expressed in BOSC-23 cells, agonist concentration-response (efficacy about […]); assay type: cell-based
# MOD-1 [4] = target: T1, MOD-1; test: whole-cell patch clamp in BOSC-23 cells, inhibition of […] 5-HT currents after […] s preincubation; assay type: cell-based
# T1 sequence (Q9GQ00 21-489): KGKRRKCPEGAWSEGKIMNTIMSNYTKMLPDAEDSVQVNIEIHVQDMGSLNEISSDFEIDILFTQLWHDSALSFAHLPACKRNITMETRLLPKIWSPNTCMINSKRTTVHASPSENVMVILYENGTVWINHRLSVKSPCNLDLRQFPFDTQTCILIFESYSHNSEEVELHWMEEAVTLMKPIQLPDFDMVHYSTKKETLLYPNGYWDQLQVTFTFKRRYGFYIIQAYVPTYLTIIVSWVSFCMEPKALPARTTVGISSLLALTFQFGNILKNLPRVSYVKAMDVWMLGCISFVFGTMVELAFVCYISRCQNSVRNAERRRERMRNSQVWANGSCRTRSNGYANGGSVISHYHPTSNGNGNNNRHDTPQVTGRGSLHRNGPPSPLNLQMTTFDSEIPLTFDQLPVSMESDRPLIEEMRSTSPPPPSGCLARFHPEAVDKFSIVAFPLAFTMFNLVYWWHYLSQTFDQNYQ
compound,measurement,setting,value
O=C(O)C1=CCNCC1 [isoguvacine],inhibition at 1000 µM,MOD-1 [1],23 ± 14%
"C1CNCCN1 [PZE, piperazine]",IC50,MOD-1 [2],113 ± 29 µM
"NCCc1c[nH]c2ccccc12 [Tryp, tryptamine]",EC50,MOD-1 [3],47 ± 11 µM
NCc1cc(=O)[nH]o1 [muscimol],IC50,MOD-1 [4],249 ± 160 µM
